The text below walks through data of ChEMBL document CHEMBL1134456, “Design, synthesis and pharmacological characterization of a potent radioiodinated and photoactivatable peptidic oxytocin antagonist” (J Med Chem, 2001).

The structures appear in SMILES notation. Starred links: 1 amine or outer side, 2 acyl side, 3 side chain; linkers in the order of their positions; H or OH if unused. Positions of bridges follow the written chain, without caps; N, C: chain ends. Non-standard residues stand in square brackets, D forms with d. Residues, ends and D or L forms follow the SMILES beside them. X1 = [N-]=[N+]=Nc1ccc(C[C@H](N[*:1])C(=O)[*:2])cc1I; X2 = O=C(CC1(S[*:2])CCCCC1)[*:1]; Orn = NCCC[C@H](N)C(=O)O

What is called Ki is a measure of affinity in units of concentration, obtained from inhibition or displacement. Read a high Ki as lower affinity. The IC50 is the midpoint of a concentration-inhibition curve. A high value points to a need for much substance. By Kd is commonly meant a measure of binding affinity in units of concentration. Low values mean higher affinity, high ones lower affinity.

The target of assay [1] is T1, Oxytocin receptor (Homo sapiens, UniProt P30559).
T1 sequence (P30559 whole entry): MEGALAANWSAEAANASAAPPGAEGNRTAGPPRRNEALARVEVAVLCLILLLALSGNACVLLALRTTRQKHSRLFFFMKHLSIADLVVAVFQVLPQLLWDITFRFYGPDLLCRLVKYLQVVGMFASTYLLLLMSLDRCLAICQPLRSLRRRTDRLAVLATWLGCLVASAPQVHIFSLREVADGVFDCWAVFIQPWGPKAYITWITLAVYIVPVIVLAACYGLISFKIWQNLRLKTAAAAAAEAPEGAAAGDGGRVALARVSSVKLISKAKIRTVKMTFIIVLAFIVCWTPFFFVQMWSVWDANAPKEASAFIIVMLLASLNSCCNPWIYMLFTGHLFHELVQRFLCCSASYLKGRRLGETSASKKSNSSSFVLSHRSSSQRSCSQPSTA
The assay is described as follows: Binding affinity towards OT receptor in CHO cells expressing the human OT receptor. In kind it is cell-based.

In assay [2] the target is T1, Oxytocin receptor. The assay is described as follows: Ability to inhibit OT-induced inositol phosphate accumulation was determined in CHO cells expressing the human OT receptor. In kind it is functional, cell-based.
The target of assay [3] is T1, Oxytocin receptor. The assay is described as follows: Dissociation constant value for human OT-receptor.

`CC[C@H](C)[C@@H]1NC(=O)[C@H](Cc2ccc(O)cc2)NC(=O)CC2(CCCCC2)SSC[C@@H](C(=O)NCC(=O)N[C@@H](CCCN)C(=O)N[C@@H](Cc2ccc(N=[N+]=[N-])c(I)c2)C(N)=O)NC(=O)[C@H](CC(N)=O)NC(=O)[C@H]([C@@H](C)O)NC1=O` (YITNCG[Orn][X1]-NH2; linker N-5 via X2) registered an inhibition constant (Ki) in assay [1] (cho) of 18 nM. In other words, the double-digit nanomolar range. `CC[C@H](C)[C@@H]1NC(=O)[C@H](Cc2ccc(OC)cc2)NC(=O)CC2(CCCCC2)SSC[C@@H](C(=O)N2CCC[C@H]2C(=O)N[C@@H](CCCN)C(=O)N[C@@H](Cc2ccc(N=[N+]=[N-])c(I)c2)C(N)=O)NC(=O)[C@H](CC(N)=O)NC(=O)[C@H]([C@@H](C)O)NC1=O` (Y(Me)ITNCP[Orn][X1]-NH2; linker N-5 via X2) showed an IC50 in assay [2] of 0.32 nM. The same compound returned a Kd in assay [3] of 0.25 nM. The compound also gave an inhibitory constant (Ki) in assay [1] (cho) of 0.3 nM. In assay [1] (cho), `CC[C@H](C)[C@@H]1NC(=O)[C@H](Cc2ccc(OC)cc2)NC(=O)CC2(CCCCC2)SSC[C@@H](C(=O)NCC(=O)N[C@@H](CCCN)C(=O)N[C@@H](Cc2ccc(N=[N+]=[N-])c(I)c2)C(N)=O)NC(=O)[C@H](CC(N)=O)NC(=O)[C@H]([C@@H](C)O)NC1=O` (Y(Me)ITNCG[Orn][X1]-NH2; linker N-5 via X2) came in with an inhibitory constant (Ki) of 2.3 nM. In assay [1], `CC[C@H](C)[C@@H]1NC(=O)[C@H](Cc2ccc(O)cc2)NC(=O)CC2(CCCCC2)SSC[C@@H](C(=O)N2CCC[C@H]2C(=O)N[C@@H](CCCN)C(=O)N[C@@H](Cc2ccc(N=[N+]=[N-])c(I)c2)C(N)=O)NC(=O)[C@H](CC(N)=O)NC(=O)[C@H]([C@@H](C)O)NC1=O` (YITNCP[Orn][X1]-NH2; linker N-5 via X2) returned a Ki of 0.6 nM.
